Measured values from US7538090B1, “Exogenous surfactant protein B mimic” (Los Angeles Biomedical Research Institute at Harbor-UCLA …, priority 2004, dated 2009).
“Also recorded” adds a separate entry of the source.

Assays:
lavaged rat model of RDS = assay: Oxygenation response in lavaged rat model of RDS; format: in vivo; settings: for in vivo activity in the rat RDS model system: FIGS. 6A and 6B (oxygenation and dynamic compliance)
Source text: FIG. 6A illustrates an example of an oxygenation response of a lavaged rat model of RDS comparing INFASURF™, a known effective animal based (cow lung lavage that includes surfactant lipids and native Cow SP-B and SP—C proteins) supplement formulation (—◯—), pig native surfactant B in INFASURF™ lipids (—Δ—), Mini-B peptide in simulated INFASURF™ lipids (—▪—), the C-terminal domain of SP-B (residues 63-78) in the oxidized (--♦--) and reduced format (—∇--), a serine derivative the C-terminal domain of SP-B (residues 63-78) with cationic arginines (R) replaced with serine residues, in oxidized (—◯--) and (—∇—) format, the N-terminal domain of SP-B (residues 11 to 25 of native SP-B) in the monomer (—□—) and a dimer (—●--) conformation and ISPL alone (—Δ—). […] A Mini-B construct also compares favorably with the commercial preparation INFASURF™ that contains both the native SP-B and SP—C protein.
(§1) The activity of a Mini-B construct is very similar to that of the commercial preparation INFASURF™ that includes equimolar amounts of native SP-B in native lung surfactant lipids and native SP—C proteins typically used in present RDS therapies.

[1] = Surface shear viscosity measurements in ISPL lipid dispersion; format: physicochemical; settings: over surface pressures and compression-expansion cycles, FIG. 7
Source text: Surface shear viscosity measurements of a Mini-B construct in a simulated INFASURF™ lipid dispersion ISPL (cow lung lavage lipids) is represented in FIG. 7.

[2] = Brewster Angle Microscope images of monolayer surfaces on the Langmuir trough; format: physicochemical; settings: Mini-B-ISPL lipids vs lipids alone; BAM images, FIG. 11
Source text: Brewster Angle Microscope images of monolayer surfaces of Mini-B-ISPL lipids versus lipids alone on the Langmuir trough as a fimcfion of surface pressure is represented in FIG. 11. […] This Mini-B induced lipid aggregation in monolayers is typical of the effect of native surfactant protein B and surfactant B type peptides.
Brewster Angle Microscope images of monlayer surfaces of Mini-B-synthetic cow lung lipids compared with the commercial surfactant preparation INFASURF™ that contains native SP-B and SP-C proteins is represented in FIG. 12. Preparations containing Mini-B aggregate lipids were similar to the commercial surfactant preparation.

[3] = Langmuir trough surface activity (surface pressure upon compression, respreading); format: physicochemical; settings: in ISPL lipids vs lipids alone, FIG. 8, 9
Source text: Langmuir trough measurements of a Mini-B construct in ISPL lipids are represented in FIG. 8. The peptide at two different concentrations is compared to lipids […]. Lipids alone on the Langmuir trough show very little change in surface pressure with compression of the air-water interface film. […] Higher concentrations of a Mini-B construct in the lipids further enhance the surface activity of the preparation and show the characteristic chances in surface pressure as a function of compression/decompression of the lipid-peptide surface film that are associated with optimal in vitro activity typical of lung surfactant preparations containing SP-B native protein.
FIG. 9 illustrates Langmuir trough measurements of a Mini-B construct in ISPL. The construct was measured at a single concentration to show the consistent pressure dependent reproducibility of the construct in the lipids that is an important criteria of an effective lung surfactant dispersion. Lipids alone on the Langmuir trough show very little change in surface pressure with compression of the air-water interface film. […]

[4] = tested on: Rat RDS animal model system; assay: Dynamic compliance measurements in the Rat RDS animal model system; format: in vivo; settings: peptide in simulated INFASURF lipids (ISPL), FIG. 6B
Source text: FIG. 6B represents dynamic compliance measurements (a measure of lung mechanical plasticity) in the Rat RDS animal model system comparing INFASURF™ replacement formulation, pig native surfactant B in INFASURF™ lipids (—◯—), a Mini-B construct in simulated INFASURF™ lipids (—▪—), the C-terminal domain of SP-B (residues 63-78) in the oxidized (--♦--) and reduced (—∇--) format, a serine derivative the C-terminal domain of SP-B (residues 63-78) with cationic arginines (R) replaced with serine residues, in oxidized (—◯--) and (—∇—) format, the N-terminal domain of SP-B (residues 11 to 25 of native SP-B) in the monomer (—□—) and dimer (—●--) conformation and ISPL alone (—Δ—).
as §1

Substance	in vivo activity in the rat RDS model system (lavaged rat model of RDS)	shear surface viscosity [1]	lipid aggregation in monolayers [2]	oxygenation response (lavaged rat model of RDS; lavaged rat model of RDS, peptide in simulated INFASURF lipids (ISPL), FIG. 6A)	surface activity (surface pressure as a function of film compression) [3]	dynamic compliance [4]
B11-25: N-terminal domain of SP-B (residues 11 to 25 of native SP-B) (CRALIKRIQAMIPKG; Pulmonary surfactant-associated protein B; UniProt P07988 211-225, looked up, fragment) [reference compound]	relatively ineffective in vivo activity					
CWLCRALIKRIQAMIPKGGRMLPQLVCRLVLRCS [Mini-B, disulfide stabilized 34 residue cyclic peptide joining SP-B residues 8 to 25 and 63 to 78]	exceeds that observed for native pig SP-B in synthetic surfactant lipids	remains constant at a large range of surface pressures	aggregate	outperforms all of the peptide segments of Mini-B separately; also recorded: closely parallels the oxygenation response that is observed for full-length native SP-B protein	enhances the surface activity	performs very nearly as well as the commercial preparation
B63-78: C-terminal domain of SP-B (residues 63-78) (GRMLPQLVCRLVLRCS; Pulmonary surfactant-associated protein B; UniProt P07988 263-278, looked up, fragment) [reference compound]	relatively ineffective in vivo activity					
